Laboratory results published in the NIST ThermoML archive (doi:10.1016/j.fluid.2016.06.019).
Numbers after ± are expanded uncertainties.

Assays:
[1] = wn = mass fraction of the nth substance listed; conditions: 298.15 K, 100 kPa, Liquid, Vibrating tube method
[2] = refractive index (Na D-line) (dimensionless); wn = mass fraction of the nth substance listed; conditions: 298.15 K, 100 kPa, Liquid, Standard Abbe refractometry
[3] = refractive index (Na D-line) (dimensionless); conditions: 298.15 K; 100 kPa; Liquid; Standard Abbe refractometry

N.N.O=S(=O)(O)O [ammonium sulfate] + O
Conditions	mass density, [1] [kg/m3]	refractive index, [2]
w1 = 0.0005	997.4 ± 0.2	1.33259 ± 0.00031
w1 = 0.0011	997.7 ± 0.2	1.33268 ± 0.00031
w1 = 0.0053	1000.3 ± 0.2	1.33337 ± 0.00031
w1 = 0.0104	1003.3 ± 0.2	1.33425 ± 0.00031
w1 = 0.0208	1009.4 ± 0.2	1.33594 ± 0.00031
w1 = 0.0412	1021.2 ± 0.2	1.33921 ± 0.00032
w1 = 0.0712	1038.4 ± 0.2	1.34393 ± 0.00032
w1 = 0.1007	1055.3 ± 0.2	1.34856 ± 0.00032

O=S(=O)([O-])[O-].[Na+].[Na+] [sodium sulfate] + O
Conditions	mass density, [1] [kg/m3]	refractive index, [2]
w1 = 0.0005	997.6 ± 0.3	1.33258 ± 0.00031
w1 = 0.0011	998.1 ± 0.3	1.33266 ± 0.00031
w1 = 0.0053	1002 ± 0.3	1.33331 ± 0.00031
w1 = 0.0108	1006.9 ± 0.3	1.33414 ± 0.00031
w1 = 0.0214	1016.5 ± 0.3	1.3357 ± 0.00031
w1 = 0.042	1035.1 ± 0.3	1.33875 ± 0.00031
w1 = 0.0719	1062.6 ± 0.3	1.34307 ± 0.00032
w1 = 0.0994	1088.5 ± 0.3	1.34535 ± 0.00032

O [water]
Conditions	refractive index
[3]	1.3325 ± 0.00031

O [water] + N.N.O=S(=O)(O)O
Conditions	refractive index
[2], w2 = 0	1.3325 ± 0.00031

O [water] + O=S(=O)([O-])[O-].[Na+].[Na+]
Conditions	refractive index
[2], w2 = 0	1.3325 ± 0.00031
